# Results from US20250197914A1, “MICROBIAL MEDIUM COMPOSITION FOR PRODUCING RETINOL, COMPRISING ANTI-OXIDANT, AND USE THEREOF” (CJ CHEILJEDANG CORPORATION, priority 2022, published 2025).
# Test system: retinol-producing strains (Yarrowia lipolytica)
# Test: Flask test of retinol production of retinol-producing strains with antioxidants in the medium
# Format: cell-based
# Conditions: antioxidant added to YLMM2 medium at 0.01% to 0.05%; 30° C., 200 rpm; 48 hour culture; HPLC
# Experimental: A flask test was performed to compare the degree of retinol production of retinol-producing strains according to the presence and absence, and the type of antioxidants. Each retinol production platform strain was inoculated in a 250 ml corner-baffled flask containing 25 ml of Yarrowia lipolytica minimal media2 (YLMM2) at an initial OD of 4, and 4 types of antioxidants, 3,5-Di-tert-4-butylhydroxytoluene (BHT), propyl gallate (PG), vitamin C, and glutathione (GSH), were added to the medium at a concentration of 0.01% to 0.05%, respectively. Culturing was carried out under conditions of 30° C. and 200 rpm.
# To evaluate the degree of growth according to culture time, the OD value at a wavelength of 600 nm was measured using a spectrophotometer, and the method of measuring retinol concentrations is as follows; After the culture was completed, 1 ml of the culture medium was centrifuged to remove the supernatant, then 0.5 ml of dimethyl sulfoxide (DMSO, Sigma) was added and the cells were disrupted by agitation at 55° C. for 10 minutes (agitation; 2,000 rpm). Next, 0.5 ml of acetone (Sigma) containing 4% BHT was added and agitated (2,000 rpm) for 15 min at 45° C., and retinoids extracted in this manner were quantitatively analyzed using HPLC equipment.
# Considering that the sugar consumption rate may vary depending on the type of antioxidants which were added to the medium, BHT, PG, vitamin C, and GSH were each cultured for 48 hours. After 48 hour-incubation, retinal and retinol were extracted and quantified.
row,SMILES,retinol concentration increase as compared to the control group without antioxidants
1,"Cc1cc(C(C)(C)C)c(O)c(C(C)(C)C)c1 [BHT, 3,5-di-tert-4-butylhydroxytoluene]",up to 1.89 times
2,"N[C@@H](CCC(=O)N[C@@H](CS)C(=O)NCC(=O)O)C(=O)O [GSH, glutathione]",≤ 1.21 times
3,"CCCOC(=O)c1cc(O)c(O)c(O)c1 [PG, propyl gallate]",≤ 1.82 times
4,"O=C1O[C@H]([C@@H](O)CO)C(O)=C1O [vitamin C, ascorbic acid]",≤ 1.44 times
